# According to ChEMBL document CHEMBL6071156 (Eur J Med Chem, 2024):
# pIC50: −log10 of the molar value.
# Assays:
# [1] = Volume of distribution at steady state in C57BL/6 mouse plasma at 2.5 mg/kg, iv measured upto 24 hrs post dosing by LC-MS/MS; format: ADME, organism-based; settings: in vivo
# [2] = Tmax in C57BL/6 mouse plasma at 10 mg/kg, po measured 4 hrs post dosing by LC-MS/MS; format: ADME, organism-based; settings: in vivo
# [3] = Oral bioavailability in C57BL/6 mouse plasma at 10 mg/kg, measured upto 24 hrs by LC-MS/MS; format: ADME, organism-based; settings: in vivo
# Chikungunya virus [4] = assay: Antiviral activity against CHIKV infected in C57BL/6 mouse assessed as footpad swelling at 100 mg/kg/day, ip measured after 6 days post infection (reference value: 40.9+/-12.4); format: functional; settings: time 6 day
# [5] = Toxicity in C57BL/6 mouse model assessed as effect on ALT level at 300 mg/kg/day, ip measured after 6 days post infection (reference value: 29 to 33); format: organism-based; settings: in vivo, 144 h, time 6 day
# Chikungunya virus [6] = assay: Antiviral activity against CHIKV S27 in green monkey Vero 76 cells assessed as reduction in virus yield measured after 3 days by Virus yield reduction assay; format: functional; settings: S27, Vero 76, 72 h, time 3 day
# CYP1A = molecular target: T1, CYP1A (Homo sapiens, UniProt P04798+P05177); assay: Inhibition of CYP1A (unknown origin); format: ADME, protein assay
# T1 sequence (P04798 whole entry): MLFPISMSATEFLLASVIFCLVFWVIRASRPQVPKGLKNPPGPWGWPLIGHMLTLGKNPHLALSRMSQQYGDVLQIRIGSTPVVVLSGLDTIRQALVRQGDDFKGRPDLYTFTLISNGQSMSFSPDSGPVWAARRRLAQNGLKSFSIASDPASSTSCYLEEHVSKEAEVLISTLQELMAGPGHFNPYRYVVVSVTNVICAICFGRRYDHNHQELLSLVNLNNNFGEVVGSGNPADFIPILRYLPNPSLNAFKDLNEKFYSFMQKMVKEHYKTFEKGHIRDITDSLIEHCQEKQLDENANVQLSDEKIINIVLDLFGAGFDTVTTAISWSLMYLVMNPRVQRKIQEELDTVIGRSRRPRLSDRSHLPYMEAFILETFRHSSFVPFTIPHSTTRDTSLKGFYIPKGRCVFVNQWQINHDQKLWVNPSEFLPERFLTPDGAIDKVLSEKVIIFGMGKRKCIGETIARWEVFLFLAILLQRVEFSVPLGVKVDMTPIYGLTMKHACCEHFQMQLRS
# T1 sequence (P05177 whole entry): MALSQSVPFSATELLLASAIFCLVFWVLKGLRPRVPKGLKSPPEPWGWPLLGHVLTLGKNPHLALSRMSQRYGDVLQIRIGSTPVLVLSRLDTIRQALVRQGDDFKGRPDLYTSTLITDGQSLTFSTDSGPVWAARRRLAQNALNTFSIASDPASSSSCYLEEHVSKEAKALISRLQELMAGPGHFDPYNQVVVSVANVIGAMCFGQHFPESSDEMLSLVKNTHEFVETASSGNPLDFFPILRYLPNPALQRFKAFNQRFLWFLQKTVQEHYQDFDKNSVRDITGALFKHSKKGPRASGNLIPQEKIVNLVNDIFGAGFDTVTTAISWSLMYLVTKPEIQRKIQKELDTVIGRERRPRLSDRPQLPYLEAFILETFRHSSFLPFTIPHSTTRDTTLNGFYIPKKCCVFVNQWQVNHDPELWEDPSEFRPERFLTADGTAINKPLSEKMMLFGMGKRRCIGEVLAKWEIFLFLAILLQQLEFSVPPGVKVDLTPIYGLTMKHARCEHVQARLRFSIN
# Cytochrome P450 2C8 = molecular target: T2, Cytochrome P450 2C8 (Homo sapiens, UniProt P10632); assay: Inhibition of CYP2C8 (unknown origin); format: ADME
# T2 sequence (P10632 whole entry): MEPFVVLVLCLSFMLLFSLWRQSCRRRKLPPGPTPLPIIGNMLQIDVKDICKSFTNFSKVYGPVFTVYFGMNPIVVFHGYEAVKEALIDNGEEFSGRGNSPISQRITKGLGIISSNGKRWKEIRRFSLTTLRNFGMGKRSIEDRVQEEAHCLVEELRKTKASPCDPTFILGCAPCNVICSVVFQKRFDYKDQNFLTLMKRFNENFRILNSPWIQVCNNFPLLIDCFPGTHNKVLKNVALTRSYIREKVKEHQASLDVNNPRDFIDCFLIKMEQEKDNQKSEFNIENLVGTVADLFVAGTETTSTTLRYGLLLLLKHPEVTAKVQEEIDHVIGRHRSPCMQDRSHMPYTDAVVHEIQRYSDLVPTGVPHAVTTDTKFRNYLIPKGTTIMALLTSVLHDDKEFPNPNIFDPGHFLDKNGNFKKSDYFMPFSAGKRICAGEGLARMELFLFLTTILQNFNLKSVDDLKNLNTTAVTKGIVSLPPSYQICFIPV
# Cytochrome P450 3A4 = Cytochrome P450 3A4 (Homo sapiens, UniProt P08684); assay: Inhibition of CYP3A4 (unknown origin); format: ADME
# Cytochrome P450 3A = Cytochrome P450 3A (Homo sapiens, UniProt P08684+P20815+Q9HB55+P24462); assay: Inhibition of CYP3A in human liver microsomes using testosterone as substrate; format: ADME, Microsome
# [7] = molecular target: T3, A-type voltage-gated potassium channel KCND3 (Homo sapiens, UniProt Q9UK17); assay: Antagonist activity at potassium channels hKv4.3/hKChiP2 expressed in HEK293 cells by Electrophysiology; format: toxicity, cell-based
# T3 sequence (Q9UK17 whole entry): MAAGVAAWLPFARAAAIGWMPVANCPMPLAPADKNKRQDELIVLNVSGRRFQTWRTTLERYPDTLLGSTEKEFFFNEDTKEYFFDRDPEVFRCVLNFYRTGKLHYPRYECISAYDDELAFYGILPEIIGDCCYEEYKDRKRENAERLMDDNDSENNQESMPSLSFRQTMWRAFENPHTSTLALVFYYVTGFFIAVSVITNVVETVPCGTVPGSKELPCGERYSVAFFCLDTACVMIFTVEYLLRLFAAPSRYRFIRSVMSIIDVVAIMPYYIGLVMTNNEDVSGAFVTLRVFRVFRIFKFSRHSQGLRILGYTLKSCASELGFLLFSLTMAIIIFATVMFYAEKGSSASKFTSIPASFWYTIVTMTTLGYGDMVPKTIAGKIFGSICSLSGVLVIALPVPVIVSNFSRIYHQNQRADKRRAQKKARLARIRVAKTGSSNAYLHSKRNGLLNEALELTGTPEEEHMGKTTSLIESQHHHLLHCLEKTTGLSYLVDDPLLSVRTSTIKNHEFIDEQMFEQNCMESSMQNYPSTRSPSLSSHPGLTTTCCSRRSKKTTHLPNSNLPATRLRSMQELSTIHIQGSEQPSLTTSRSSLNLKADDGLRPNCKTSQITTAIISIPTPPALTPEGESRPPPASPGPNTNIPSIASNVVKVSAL
# Cytochrome P450 3A4, sequence (P08684 whole entry): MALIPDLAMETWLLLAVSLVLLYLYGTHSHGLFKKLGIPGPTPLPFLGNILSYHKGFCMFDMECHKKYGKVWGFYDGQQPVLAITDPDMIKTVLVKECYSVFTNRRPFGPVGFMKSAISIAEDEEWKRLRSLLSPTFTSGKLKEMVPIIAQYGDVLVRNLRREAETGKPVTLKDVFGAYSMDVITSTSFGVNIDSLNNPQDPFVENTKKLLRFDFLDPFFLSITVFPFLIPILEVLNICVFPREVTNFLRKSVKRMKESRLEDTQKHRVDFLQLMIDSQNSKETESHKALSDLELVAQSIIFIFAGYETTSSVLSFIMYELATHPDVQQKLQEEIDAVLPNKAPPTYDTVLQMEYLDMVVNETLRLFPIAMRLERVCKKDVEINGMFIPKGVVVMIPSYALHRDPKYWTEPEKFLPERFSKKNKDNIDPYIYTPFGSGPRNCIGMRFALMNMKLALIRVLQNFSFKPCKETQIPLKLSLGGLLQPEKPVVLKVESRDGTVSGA
structure (smiles),measurement,setting,value
CC1CCNc2c(C(=O)NC/C=C/S(C)(=O)=O)cccc21 (stereo unspecified),Vdss,[1],1.9 L/kg
same,Tmax,[2],4 h
same,F,[3],95.6%
same,Activity,Chikungunya virus [4],23.7%
same,Activity,[5],28 U/L
same,EC90,Chikungunya virus [6],1.6 µM
same,pIC50,CYP1A,< 4.00
same,pIC50,Cytochrome P450 2C8,< 4.00
same,pIC50,Cytochrome P450 3A4,< 4.00
same,IC50,Cytochrome P450 3A,< 0.03 µM
same,pIC50,[7],< 4.00
